Legend:
[1] = test system: Healthy (GM08402) fibroblasts; test: Erastin cytoprotection assay, healthy fibroblasts; type: cell-based, human; conditions: 2 μM erastin, 24 hours, FIG. 12
Protocol: (§1) Briefly, Healthy (GM08402) or Leigh (GM03672) fibroblasts were resuspended in assay medium, seeded at 10,000 cells per well in a clear, tissue cultured-treated, 96-well plate, and incubated at 37° C. overnight. Following the incubation, supernatant was manually aspirated from wells, taking care not to disrupt cells. Fibroblasts were co-treated in a final volume of 100 μL with 2 μM erastin (Millipore Corp., Cat #), 250 μM ferric ammonium citrate (FAC), 50 µM ascorbic acid (AA), and a titration of one of each of Compounds 1 to 4 or Vatiquinone ranging from 10 to 1000 nM. Following another 24-hour incubation at 37° C., cell viability was measured using the CellTiter-Glo Luminescent Cell Viability Kit (ProMega) per Manufacturer's instructions. Luminescence units were quantified by GEN5 software on a BioTek SYNERGY neo2 plate reader (LUM filter).
(§2) Briefly, erastin, like RSL3, is known to induce ferroptosis. […] Erastin was incubated with cell fibroblasts for 24 hours to induce ferroptosis. Cells were co-treated with each of Compounds 1 to 4, or Vatiquinone as the test articles. Test articles were administered at a range of concentrations to derive a curve. Cell viability was determined using a commercially available kit that measures ATP production. […] An increase in cell viability as determined by the assay is considered to be protective against ferroptosis.

[2] = test system: reverse electron transfer (RET) from Complex II to Complex I in isolated murine brain mitochondria; test: Reverse electron transfer (RET) assay, H2O2 (ROS) production; type: biochemical, mouse
Protocol: For mitochondria isolation, brains were dissected at a local vivarium (Explora, MA, USA) from C57BL/6 mice that were supplied by The Jackson Laboratory (Maine, USA). Brains were collected on ice in cold mitochondria isolation buffer (225 mM mannitol, 75 mM sucrose, 5 mM HEPES, 1 mM EGTA, pH 7.4). In a glass petri dish, brains were mixed with a few drops of buffer and cut into small pieces resembling a mash using scissors. Mitochondrial isolation buffer was added at 1:10-1:20 (w/v) and tissue mash was transferred to a glass Dounce tissue homogenizer and further homogenized with 10-15 strokes. Mash was centrifuged at 1,000×g for 10 min to pellet and remove cellular debris, etc. Supernatant was transferred into 2.0 mL tubes and centrifuged at 10,000×g. The mitochondria pellet was resuspended in the desired amount of miR05 buffer (Oroboros, Innsbruck, Austria) and added directly to the Oroboros oxygraph-2K (Oroboros, Innsbruck, Austria) for an experiment or maintained on ice for up to 4 hours.
All high-resolution respirometry experiments were conducted using the Oroboros O2k-Fluorespirometer (Oroboros, Innsbruck, Austria). The Oroboros O2k-Fluorespirometer was calibrated daily using the air calibration protocol on DatLab 7.4 (Oroboros, Innsbruck, Austria). Prior to each experiment requiring the fluorescence module, the AmpR calibration protocol from DatLab 7.4 was used to calibrate the fluorescence signal. Initial data analysis, including setting of marks, was performed using DatLab 7.4.
Reverse electron transfer (RET) was measured using HRR with the Oroboros O2k and DatLab 7.4. To configure the Amp channel, the light or “Fluo intensity” was set at 1000 and the amplification of signal or “Gain for Fluo sensor” at 500 and illumination in the chamber was turned “off”. To calibrate the Fluo sensors, the Instrument protocol “AmR calibration” was used. […]
Statistical analysis was performed using GraphPad Prism 9. […] RET Assay data were analyzed by 2-way ANOVA using a p-value of 0.05. […]

15-lipoxygenase (15-LO) [3] = test: 15(S)-HETE ELISA following RSL3 treatment, healthy fibroblasts; type: cell-based, human; conditions: 700 nM RSL3, 1 μM compound, FIG. 10; for inhibition of 15-lipoxygenase (15(S)-HETE in supernatant): 24 hours
Protocol: (§3) Samples for the 15(S)-HETE ELISA were generated by the RSL3 cytoprotection assay described above. Healthy or Leigh fibroblasts were resuspended in assay medium, seeded at 200,000 cells per well in a clear, tissue culture-treated, 24-well plate. Cells were incubated at 37° C. for 24 hours. Supernatant was aspirated from each well following the incubation.
(§4) Fibroblasts from both a healthy individual and a patient diagnosed with Leigh syndrome were examined (but not all compounds were examined in each cell type). Activation of ferroptosis has been implicated as a driver of epilepsy, which is commonly associated with Leigh syndrome. […] Kahn-Kirby et al. PLOS One. […] As a key regulator of ferroptosis, 15-LO serves as a rational therapeutic target in Leigh syndrome.

[4] = test system: Leigh (GM03672) fibroblasts; test: Erastin cytoprotection assay, Leigh fibroblasts; type: cell-based, human; conditions: 2 μM erastin, 24 hours, FIG. 13
Protocol: as §1, §2

15-lipoxygenase (15-LO) [5] = test: 15(S)-HETE ELISA following RSL3 treatment, Leigh fibroblasts; type: cell-based, human; conditions: 700 nM RSL3, 1 μM compound, FIG. 11
Protocol: as §3, §4

[6] = 2 μM compound prior to addition of succinate (10 mM)

Compound | protective effect compared among test articles [1] | H2O2 production [2, 6] | inhibition of 15-lipoxygenase (15(S)-HETE in supernatant) (15-lipoxygenase (15-LO) [3]) | 15-lipoxygenase inhibition compared among test articles (15-lipoxygenase (15-LO) [3]) | protective effect compared among test articles [4] | 15-LO inhibition compared among test articles (15-lipoxygenase (15-LO) [5]) | H2O2 production ([2]; 1 μM compound prior to addition of succinate (10 mM))
CC1=C(C)C(=O)C(CC[C@@](C)(O)COCCC[Si](C)(C)C)=C(C)C1=O [Compound 3] | superior in their protective effect | statistically significant reduction | inhibited 15-lipoxygenase | superior to Compounds 2, 4 and Vatiquinone | superior in their protective effect | roughly equivalent protective effect | 
CC1=C(C)C(=O)C(CC[C@](C)(O)CCCCCCCCC(F)(F)F)=C(C)C1=O [Compound 4] | about equally protective | statistically significant reduction | inhibited 15-lipoxygenase | roughly equivalent protective effect | about equally protective | roughly equivalent protective effect | statistically significant reduction

Reference: US20250144049A1, “METHODS, COMPOSITIONS, AND USES RELATED TO THE TREATMENT AND PREVENTION OF LEIGH SYNDROME” (Stealth BioTherapeutics Inc., priority 2023, published 2025)
